Like-named read-outs stand apart in the source and are kept apart here.

Test [1] deals with p38α activated, mitogen-activated protein kinase-activated protein kinase 2 (MAPKAP-K2 or MK2) enzyme (Homo sapiens (Human), UniProt P49137). The experiment in a line: MK2 Omnia continuous-read kinase assay for compound potency. The class given is biochemical. Summed up: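 Activated MK2 (0.4 nM) was run with S/T3-Sox peptide and ATP, each at 10 μM (ATP at apparent KM), and Sox fluorescence was followed every 71 s for 2 h at room temperature. IC50 came from linear initial rates after no-enzyme subtraction, and apparent kinact/KI from kobs of single-exponential fits.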

Test [2] addresses T1, MK2 (Homo sapiens (Human), UniProt P49137). Put plainly: MK2 cellular assay, total and phospho-Hsp27 (Serine 78) by MSD ELISA (Thp1). The class given is cell-based. Summed up:
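PMA-differentiated (10 ng/mL, 72 h) Thp-1 cells were pretreated with compound (top 3000 nM) for 1 h at 37 °C, then stimulated with 50 ng/mL LPS for 45 min. Lysate phospho-Hsp27 (Ser78) and total Hsp27 were read by MSD electrochemiluminescence ELISA, and the value is expressed as percent phospho/total signal per well.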

In test [3] the target is T1, MK2. Particulars: percentage of modified protein after 60 minutes at room temperature, 10-fold excess of compound; MALDI (I-1 to I-50), magnetic bead MALDI (I-51 to I-129).
The mark [4] stands for this setting: [MK-2]=0.4 nM, [ATP]=10 μM, [ST3-Sox]=10 μM, read-out: MK2 IC50.
Where [5] appears, read: Thp-1 cells, 1 hour compound, 50 ng/mL LPS 45 minutes, p-HSP27 (Ser78)/total HSP27, read-out: pHSP27 signaling EC50.
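For Mass Modification in this document: covalent binding read from centroid mass shift of compound-treated versus untreated intact MK2, shift divided by compound molecular weight, giving fraction of total protein bound.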

T1 sequence (P49137 whole entry): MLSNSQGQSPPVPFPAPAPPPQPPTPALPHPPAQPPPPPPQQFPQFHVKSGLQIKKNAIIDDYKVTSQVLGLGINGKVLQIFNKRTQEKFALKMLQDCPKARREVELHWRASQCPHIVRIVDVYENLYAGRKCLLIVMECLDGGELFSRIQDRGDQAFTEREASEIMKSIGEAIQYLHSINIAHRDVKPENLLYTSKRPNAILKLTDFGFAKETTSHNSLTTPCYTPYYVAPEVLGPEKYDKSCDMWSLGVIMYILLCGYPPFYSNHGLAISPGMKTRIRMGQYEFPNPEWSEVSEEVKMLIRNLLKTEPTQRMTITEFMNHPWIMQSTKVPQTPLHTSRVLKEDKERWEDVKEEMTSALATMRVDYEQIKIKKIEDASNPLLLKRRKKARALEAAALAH
p38α activated, mitogen-activated protein kinase-activated protein kinase 2 (MAPKAP-K2 or MK2) enzyme, sequence (P49137 whole entry): as above

A word on the IC50: it is the point on the concentration scale where inhibition reaches its midpoint. For orientation: EC50 means the concentration at which the effect is half-maximal. For the compound `C[C@@H]1CNc2c(sc3ccc4nc(Oc5cnnc(Cl)c5)ccc4c23)C(=O)N1` [I-79, (R)-3-((6-chloropyridazin-4-yl)oxy)-10-methyl-9,10,11,12-tetrahydro-8H-[1,4]diazepino[5′,6′:4,5]thieno[3,2-f]quinolin-8-one], the IC50 in test [1] (setting [4]) was less than 0.1 µM. Moreover, the EC50 at MK2 [2] (setting [5]) was in the range of 0.101 to 0.5 µM. In addition, at MK2 [3], the “Mass Modification” value was “E (mass modification of ≧70%)”.

Regarding `C[C@@H]1CNc2c(sc3ccc4nc(Oc5nc(Cl)ncc5CN5CC6CC6C5)ccc4c23)C(=O)N1` (stereo partly drawn) [I-83, ((1OR)-3-((5-(3-azabicyclo[3.1.0]hexan-3-yl)methyl)-2-chloropyrimidin-4-yl)oxy)-10-methyl-9,10,11,12-tetrahydro-8H-[1,4]diazepino[5′,6′:4,5]thieno[3,2-f]quinolin-8-one], in test [1] (setting [4]), the IC50 is 0.101 to 0.5 µM. Besides, the EC50 at MK2 [2] (setting [5]) was less than 0.1 µM. Besides, the “Mass Modification” value on MK2 [3] was “E (mass modification of ≧70%)”.

Consider `C[C@@H]1CNc2c(sc3ccc4nc(Oc5nc(Cl)ncc5CN5CC6CC(C6)C5)ccc4c23)C(=O)N1` [I-85, (R)-3-((5-((3-azabicyclo[3.1.1]heptan-3-yl)methyl)-2-chloropyrimidin-4-yl)oxy)-10-methyl-9,10,11,12-tetrahydro-8H-[1,4]diazepino[5′,6′:4,5]thieno[3,2-f]quinolin-8-one], for which, in test [1], the IC50 lay in the range of 0.101 to 0.5 µM. Also, the EC50 at MK2 [2] was less than 0.1 µM. The “Mass Modification” value on MK2 [3] was “E (mass modification of ≧70%)”.

Regarding `C[C@@H]1CNc2c(sc3ccc4nc(Oc5nc(Cl)nc6c5COC6)ccc4c23)C(=O)N1` [I-86, (R)-3-((2-chloro-5,7-dihydrofuro[3,4-d]pyrimidin-4-yl)oxy)-10-methyl-9,10,11,12-tetrahydro-8H-[1,4]diazepino[5′,6′:4,5]thieno[3,2-f]quinolin-8-one], the IC50 in test [1] (setting [4]) was less than 0.1 µM. Also, the EC50 at MK2 [2] (setting [5]) is less than 0.1 µM. In addition, on MK2 [3], the “Mass Modification” value was “E (mass modification of ≧70%)”.

As for `COCCN(C)Cc1cnc(Cl)nc1Oc1ccc2c(ccc3sc4c(c32)NC[C@@H](C)NC4=O)n1` [I-90, (R)-3-((2-chloro-5-(((2-methoxyethyl)(methyl)amino)methyl)pyrimidin-4-yl)oxy)-10-methyl-9,10,11,12-tetrahydro-8H-[1,4]diazepino[5′,6′:4,5]thieno[3,2-f]quinolin-8-one], the IC50 in test [1] (setting [4]) lay in the range of 0.101 to 0.5 µM. Also, on MK2 [2] (setting [5]), the EC50 is less than 0.1 µM. The “Mass Modification” value on MK2 [3] was “E (mass modification of ≧70%)”.

Regarding `CCN1CCN(Cc2cnc(Cl)nc2Oc2ccc3c(ccc4sc5c(c43)NC[C@@H](C)NC5=O)n2)CC1` [I-94, (R)-3-((2-chloro-5-((4-ethylpiperazin-1-yl)methyl)pyrimidin-4-yl)oxy)-10-methyl-9,10,11,12-tetrahydro-8H-[1,4]diazepino[5′,6′:4,5]thieno[3,2-f]quinolin-8-one], in test [1] (setting [4]), the IC50 is 0.101 to 0.5 µM. Also, the EC50 at MK2 [2] (setting [5]) was greater than 1 µM. Besides, on MK2 [3], the “Mass Modification” value was “E (mass modification of ≧70%)”.

On to `C[C@@H]1CNc2c(sc3ccc4nc(Oc5nc(Cl)ncc5CN5CCCC(C)(C)C5)ccc4c23)C(=O)N1` [I-95, (R)-3-((2-chloro-5-((3,3-dimethylpiperidin-1-yl)methyl)pyrimidin-4-yl)oxy)-10-methyl-9,10,11,12-tetrahydro-8H-[1,4]diazepino[5′,6′:4,5]thieno[3,2-f]quinolin-8-one], for which the IC50 in test [1] (setting [4]) lay in the range of 0.101 to 0.5 µM. In addition, the EC50 at MK2 [2] (setting [5]) was less than 0.1 µM. Further, at MK2 [3], the “Mass Modification” value is on record as “E (mass modification of ≧70%)”.

Consider `C[C@@H]1CNc2c(sc3ccc4nc(Oc5nc(Cl)ncc5COC5(C)COC5)ccc4c23)C(=O)N1` [I-103, (R)-3-((2-chloro-5-(((3-methyloxetan-3-yl)oxy)methyl)pyrimidin-4-yl)oxy)-10-methyl-9,10,11,12-tetrahydro-8H-[1,4]diazepino[5′,6′:4,5]thieno[3,2-f]quinolin-8-one], for which the IC50 in test [1] (setting [4]) was less than 0.1 µM. Besides, the EC50 on MK2 [2] (setting [5]) was in the range of 0.101 to 0.5 µM. In addition, the “Mass Modification” value on MK2 [3] was “E (mass modification of ≧70%)”.

For the compound `C[C@@H]1CNc2c(sc3ccc4nc(Oc5nc(Cl)nc6c5CS(=O)(=O)CC6)ccc4c23)C(=O)N1` [I-105, (R)-3-((2-chloro-6,6-dioxido-7,8-dihydro-5H-thiopyrano[4,3-d]pyrimidin-4-yl)oxy)-10-methyl-9,10,11,12-tetrahydro-8H-[1,4]diazepino[5′,6′:4,5]thieno[3,2-f]quinolin-8-one], the IC50 in test [1] (setting [4]) was less than 0.1 µM. Also, the EC50 at MK2 [2] (setting [5]) is 0.101 to 0.5 µM. The “Mass Modification” value at MK2 [3] is “E (mass modification of ≧70%)”.

Consider `CO[C@@H]1CCCN(Cc2cnc(Cl)nc2Oc2ccc3c(ccc4sc5c(c43)NC[C@@H](C)NC5=O)n2)C1` [I-107, (R)-3-((2-chloro-5-(((R)-3-methoxypiperidin-1-yl)methyl)pyrimidin-4-yl)oxy)-10-methyl-9,10,11,12-tetrahydro-H-[1,4]diazepino[5′,6′:4,5]thieno[3,2-f]quinolin-8-one], for which, in test [1] (setting [4]), the IC50 was in the range of 0.101 to 0.5 µM. The EC50 at MK2 [2] (setting [5]) is less than 0.1 µM. In addition, the “Mass Modification” value on MK2 [3] is on record as “E (mass modification of ≧70%)”.

`C[C@@H]1CNc2c(sc3ccc4nc(Oc5nc(Cl)ncc5COCCC#N)ccc4c23)C(=O)N1` [I-111, (R)-3-((2-chloro-4-((10-methyl-8-oxo-9,10,11,12-tetrahydro-8H-[1,4]diazepino[5′,6′:4,5]thieno[3,2-f]quinolin-3-yl)oxy)pyrimidin-5-yl)methoxy)propanenitrile]: the IC50 in test [1] (setting [4]) is less than 0.1 µM. Moreover, the EC50 on MK2 [2] (setting [5]) lay within 0.101 to 0.5 µM. For the same compound, at MK2 [3], the “Mass Modification” value is on record as “E (mass modification of ≧70%)”.

`C[C@@H]1CNc2c(sc3ccc4nc(Oc5nc(Cl)ncc5CS(C)(=O)=O)ccc4c23)C(=O)N1` [I-112, (R)-3-((2-chloro-5-((methylsulfonyl)methyl)pyrimidin-4-yl)oxy)-10-methyl-9,10,11,12-tetrahydro-8H-[1,4]diazepino[5′,6′:4,5]thieno[3,2-f]quinolin-8-one]: the IC50 in test [1] (setting [4]) is less than 0.1 µM. At MK2 [2] (setting [5]), the half-maximal effective concentration (EC50) lay within 0.101 to 0.5 µM. The “Mass Modification” value on MK2 [3] is “E (mass modification of ≧70%)”.

As for `C[C@@H]1CNc2c(sc3ccc4nc(Oc5nc(Cl)ncc5CN5C6CCC5COC6)ccc4c23)C(=O)N1` [I-114, (R)-3-((5-((3-oxa-8-azabicyclo[3.2.1]octan-8-yl)methyl)-2-chloropyrimidin-4-yl)oxy)-10-methyl-9,10,11,12-tetrahydro-8H-[1,4]diazepino[5′,6′:4,5]thieno[3,2-f]quinolin-8-one], the IC50 in test [1] lay in the range of 0.101 to 0.5 µM. Moreover, at MK2 [2], the EC50 is less than 0.1 µM. Also, the “Mass Modification” value on MK2 [3] is “E (mass modification of ≧70%)”.

Turning to `C[C@@H]1CNc2c(sc3ccc4nc(Oc5nc(Cl)ncc5CN5C[C@@H](C)N[C@@H](C)C5)ccc4c23)C(=O)N1` [I-115, (R)-3-((2-chloro-5-(((3R,5S)-3,5-dimethylpiperazin-1-yl)methyl)pyrimidin-4-yl)oxy)-10-methyl-9,10,11,12-tetrahydro-8H-[1,4]diazepino[5′,6′:4,5]thieno[3,2-f]quinolin-8-one], in test [1] (setting [4]), the half-maximal inhibitory concentration (IC50) was 0.101 to 0.5 µM. For the same compound, the EC50 at MK2 [2] (setting [5]) is greater than 1 µM. On MK2 [3], the “Mass Modification” value is “E (mass modification of ≧70%)”.

In the case of `C[C@@H]1CNc2c(sc3ccc4nc(Oc5nc(Cl)ncc5Br)ccc4c23)C(=O)N1` [I-116, (R)-3-((5-bromo-2-chloropyrimidin-4-yl)oxy)-10-methyl-9,10,11,12-tetrahydro-8H-[1,4]diazepino[5′,6′:4,5]thieno[3,2-f]quinolin-8-one], the IC50 in test [1] (setting [4]) was less than 0.1 µM. In addition, the EC50 on MK2 [2] (setting [5]) was less than 0.1 µM. The “Mass Modification” value on MK2 [3] is listed as “E (mass modification of ≧70%)”.

As to `C[C@@H]1CNc2c(sc3ccc4nc(Oc5cc(CN(C)C(C)(C)C)nc(Cl)n5)ccc4c23)C(=O)N1` [I-118, (R)-3-((6-((tert-butyl(methyl)amino)methyl)-2-chloropyrimidin-4-yl)oxy)-10-methyl-9,10,11,12-tetrahydro-8H-[1,4]diazepino[5′,6′:4,5]thieno[3,2-f]quinolin-8-one], the IC50 in test [1] (setting [4]) lay in the range of 0.501 to 0.999 µM. Besides, the EC50 on MK2 [2] (setting [5]) lay in the range of 0.101 to 0.5 µM. In addition, on MK2 [3], the “Mass Modification” value was “E (mass modification of ≧70%)”.

Regarding `C[C@@H]1CNc2c(sc3ccc4nc(Oc5nc(F)nc6c5COC6)ccc4c23)C(=O)N1` [I-119, (R)-3-((2-fluoro-5,7-dihydrofuro[3,4-d]pyrimidin-4-yl)oxy)-10-methyl-9,10,11,12-tetrahydro-8H-[1,4]diazepino[5′,6′:4,5]thieno[3,2-f]quinolin-8-one], in test [1] (setting [4]), the IC50 is less than 0.1 µM. The EC50 at MK2 [2] (setting [5]) is less than 0.1 µM. Further, the “Mass Modification” value at MK2 [3] is “F (mass modification of 31-69%)”.

Turning to `C[C@@H]1CNc2c(sc3ccc4nc(Oc5nc(Cl)ncc5C5=CCN(C)CC5)ccc4c23)C(=O)N1` [I-122], in test [1] (setting [4]), the IC50 is less than 0.1 µM. At MK2 [2] (setting [5]), the EC50 was in the range of 0.101 to 0.5 µM. The “Mass Modification” value on MK2 [3] is listed as “E (mass modification of ≧70%)”.

Consider `C[C@@H]1CNc2c(sc3ccc4nc(Oc5nc(Cl)ncc5C5=CCOCC5)ccc4c23)C(=O)N1` [I-124, (R)-3-((2-chloro-5-(3,6-dihydro-2H-pyran-4-yl)pyrimidin-4-yl)oxy)-10-methyl-9,10,11,12-tetrahydro-8H-[1,4]diazepino[5′,6′:4,5]thieno[3,2-f]quinolin-8-one], for which the 50% inhibitory concentration (IC50) in test [1] (setting [4]) is less than 0.1 µM. Also, the EC50 at MK2 [2] (setting [5]) lay within 0.101 to 0.5 µM. Further, the “Mass Modification” value at MK2 [3] is given as “E (mass modification of ≧70%)”.

The values above are taken from patent US9790235B2, “MK2 inhibitors and uses thereof” (Celgene CAR LLC, priority 2014, dated 2017).
